Earlier results in publication PMC6974622, “DeepMalaria: Artificial Intelligence Driven Discovery of Potent Antiplasmodials” (Frontiers in Pharmacology, 2020).
Values joined by “and” are separate entries in the source; they are usually repeats but may differ in a detail not shown here. Identical values can stand only once. Counter-ions that a name gives are not always drawn. Like-named read-outs stand apart in the source and are kept apart here. *1 amine or outer side, *2 acyl side, *3 side chain or, on linkers, in order; H or OH if unused. Where a SMILES comes first, the peptide text is derived from it. Bridges are numbered along the chain shown (N, C = ends). Roman numbers before positions name the chains, in order. [ ]: non-standard residue; d: D form. Actinocin(1to9) = Cc1c2oc3c(C)ccc(C(=O)[*:2])c3nc-2c(C(=O)[*:1])c(N)c1=O; NMeV = CN[C@H](C(=O)O)C(C)C; Sar = CNCC(=O)O

Test system: 3D7
Set-up: unit not given here
Conditions: cited from earlier work
[1] = repurposing dataset, 179 approved drugs, ref https://www.nature.com/articles/nchembio806

| SMILES | 3D7 [1] | 3D7 |
| --- | --- | --- |
| CO[C@H]1/C=C\O[C@@]2(C)Oc3c(C)c(O)c4c(O)c(c(C=O)c(O)c4c3C2=O)NC(=O)/C(C)=C\C=C/[C@H](C)[C@H](O)[C@@H](C)[C@@H](O)[C@@H](C)[C@H](OC(C)=O)[C@@H]1C [3-formyl rifamycin] | 99 | – |
| N[C@H](C(=O)O)[C@@H]1CC(Cl)=NO1 [Acivicin] | 98.6 | – |
| CC[C@@]1(O)C[C@H](O[C@H]2C[C@H](N(C)C)[C@H](O[C@H]3C[C@H](O)[C@H](O[C@H]4CCC(=O)[C@H](C)O4)[C@H](C)O3)[C@H](C)O2)c2c(cc3c(c2O)C(=O)c2c(O)cccc2C3=O)[C@H]1C(=O)OC [Aclarubicin] | 99.6 | – |
| C[n+]1c2cc(N)ccc2cc2ccc(N)cc21.Nc1ccc2cc3ccc(N)cc3nc2c1.[Cl-] [Acriflavine] | 98.2 and 99 | – |
| CCCCCCc1ccc(O)cc1O.Nc1c2ccccc2nc2ccccc12 [Acrisorcin] | 98.4 | – |
| C=CC(=O)O [Acrylic acid] | 68.8 | – |
| CCCCC(CC)CNC(=N)NC(=N)NCCCCCCNC(=N)NC(=N)NCC(CC)CCCC (stereo not drawn) [Alexidine] | 99.5 | – |
| N=C(N)NC(=O)c1nc(Cl)c(N)nc1N [Amiloride] | 73.2 | – |
| Nc1c2ccccc2nc2ccccc12 [Aminacrine] | 97.6 | – |
| Nc1nc(N)c2nc(CNc3ccc(C(=O)N[C@@H](CCC(=O)O)C(=O)O)cc3)cnc2n1 [Aminopterin] | 95.7 | – |
| CCOC(=O)C1=C(COCCN)NC(C)=C(C(=O)OC)C1c1ccccc1Cl (stereo not drawn) [Amlodipine besylate] | 68.2 | – |
| C[C@@H]1[C@H](O)[C@@H](C)/C=C/C=C/C=C/C=C/C=C/C=C/C=C/[C@H](O[C@@H]2O[C@H](C)[C@@H](O)[C@H](N)[C@@H]2O)C[C@@H]2O[C@](O)(C[C@@H](O)C[C@@H](O)[C@H](O)CC[C@@H](O)C[C@@H](O)CC(=O)O[C@H]1C)C[C@H](O)[C@H]2C(=O)O [Amphotericin B] | 59.2 | – |
| COc1ccc(C[C@H]2NC[C@H](O)[C@H]2OC(C)=O)cc1 [Anisomycin] | 97 | – |
| C[C@@H]1CC[C@H]2[C@@H](C)C(=O)O[C@@H]3O[C@@]4(C)CC[C@@H]1[C@]32OO4 [Artemisinin] | 99.1 | – |
| C[C@H]1[C@H](OC(=O)CCC(=O)O)O[C@@H]2O[C@@]3(C)CC[C@H]4[C@H](C)CC[C@@H]1[C@@]24OO3 [Artesunate] | 98.7 | – |
| COc1ccc(CCN2CCC(Nc3nc4ccccc4n3Cc3ccc(F)cc3)CC2)cc1 [Astemizole] | 97.6 | – |
| CC(=O)OC[C@H]1O[C@@H]([S-])[C@H](OC(C)=O)[C@@H](OC(C)=O)[C@@H]1OC(C)=O.CCP(CC)CC.[Au+] [Auranofin] | 99.4 | – |
| CC[C@H]1OC(=O)[C@H](C)[C@@H](O[C@H]2C[C@@](C)(OC)[C@@H](O)[C@H](C)O2)[C@H](C)[C@@H](O[C@@H]2O[C@H](C)C[C@H](N(C)C)[C@H]2O)[C@](C)(O)C[C@@H](C)CN(C)[C@H](C)[C@@H](O)[C@]1(C)O [Azithromycin] | 80.2 | – |
| CC1=CC(=C(c2ccc(N)cc2)c2ccc(N)cc2)C=CC1=N.Cl [Basic fuchsin] | – | 96.3 |
| CC(C)(C)CC(C)(C)c1ccc(OCCOCC[N+](C)(C)Cc2ccccc2)cc1 [Benzethonium chloride] | 98.6 | – |
| CCCCCCCCCCCC[N+](C)(C)Cc1ccccc1 [Benzododecinium chloride] | 99.9 | – |
| CN1[C@@H]2CC[C@H]1C[C@@H](OC(c1ccccc1)c1ccccc1)C2 [Benztropine mesylate] | 70.6 | – |
| C[N+](C)(CCOc1ccccc1)Cc1ccccc1.O=C(O)c1cc2ccccc2cc1[O-] [Bephenium hydroxynaphthoate] | 70.2 | – |

| SMILES | 3D7 [1] | 3D7 |
| --- | --- | --- |
| COc1ccc2cc3[n+](cc2c1OC)CCc1cc2c(cc1-3)OCO2 [Berberine] | 98.2 | – |
| O.O=C(O)c1cc(O)c2c(c1)[O][Bi][O]2 [Bismuth gallate] | 56.5 | – |
| CN(C)CCOC(c1ccccc1)c1ccc(Br)cc1 (stereo not drawn) [Bromodiphenhydramine] | 64.2 | – |
| Oc1c(Br)cc(Br)c2cccnc12 [Broxyquinoline] | 90.8 | – |
| CCCCOc1ccc(CC(=O)NO)cc1 [Bufexamac] | 93.2 | – |
| CC[C@H](C)[C@@H]1NC(=O)[C@@H](NC(=O)c2c3nc4c(C(=O)N[C@@H]5C(=O)N[C@@H](C(C)C)C(=O)N6CCC[C@H]6C(=O)N(C)CC(=O)N(C)[C@@H](C(C)C)C(=O)O[C@@H]5C)ccc(C)c4oc-3c(C)c(=O)c2N)[C@@H](C)OC(=O)[C@H](C(C)C)N(C)C(=O)CN(C)C(=O)[C@@H]2CCCN2C1=O [Cactinomycin] (I: TIP[Sar][NMeV] / II: TVP[Sar][NMeV]; ester I:1-I:C, II:1-II:C; linker I:N-II:N via Actinocin(1to9)) | – | 99 |
| CCCCCCCCCCCCCCCC[N+](C)(C)Cc1ccccc1 [Cetalkonium chloride] | 74.2 | – |
| CCCCCCCCCCCCCCCC[n+]1ccccc1 [Cetylpyridinium chloride] | 98.6 | – |
| [H]/N=C(\N/C(=N/[H])NCCCCCCNC(=N)NC(=N)Nc1ccc(Cl)cc1)Nc1ccc(Cl)cc1 [Chlorhexidine] | 95.4 | – |
| CCN(CC)CCCC(C)Nc1ccnc2cc(Cl)ccc12 (stereo not drawn) [Chloroquine diphosphate] | 97.3 | – |
| CN(C)CCOC(C)(c1ccccc1)c1ccc(Cl)cc1 (stereo not drawn) [Chlorphenoxamine] | 90.8 | – |
| CO[C@@H]1[C@H](O)C[C@@H](O[C@@H]2C[C@H](Oc3cc4cc5c(c(O)c4c(O)c3C)C(=O)[C@@H](O[C@H]3C[C@@H](O[C@H]4C[C@@H](O[C@H]6C[C@](C)(O)[C@@H](OC(C)=O)[C@H](C)O6)[C@H](O)[C@@H](C)O4)[C@H](O)[C@@H](C)O3)[C@H]([C@H](OC)C(=O)[C@@H](O)[C@@H](C)O)C5)O[C@H](C)[C@@H]2OC(C)=O)O[C@@H]1C [Chromomycin A3] | 98.4 | – |
| Cc1cc(C2CCCCC2)n(O)c(=O)c1 [Ciclopirox olamine] | 96.9 | – |
| C=C[C@H]1CN2CC[C@H]1C[C@H]2[C@H](O)c1ccnc2ccccc12 [Cinchonidine] | 97 | – |
| C=C[C@H]1CN2CC[C@H]1C[C@@H]2[C@@H](O)c1ccnc2ccccc12.C=C[C@H]1CN2CC[C@H]1C[C@@H]2[C@@H](O)c1ccnc2ccccc12.O=S(=O)(O)O [Cinchonine sulfate] | 88.6 | – |
| CN1CCC[C@@H]1CCO[C@](C)(c1ccccc1)c1ccc(Cl)cc1 [Clemastine] | 96.5 | – |
| NC1CCN(c2c(F)cc3c(=O)c(C(=O)O)cn(C4CC4)c3c2Cl)C1 (stereo not drawn) [Clinafloxacin] | 79.3 | – |
| CCC(=O)O[C@]1(C(=O)CCl)[C@@H](C)C[C@H]2[C@@H]3CCC4=CC(=O)C=C[C@]4(C)[C@@]3(F)[C@@H](O)C[C@@]21C [Clobetasol propionate] | 86 | – |
| Oc1ccc(Cl)c2cccnc12 [Cloxyquin] | 83.6 | – |
| O=S(=O)([O-])[O-].[Cu+2] [Copper sulfate] | 80.4 | – |
| C[C@@H]1C[C@@H]([C@H](O)CC2CC(=O)NC(=O)C2)C(=O)[C@@H](C)C1 [Cycloheximide] | 97.7 | – |
| O=P1(N(CCCl)CCCl)NCCCO1 (stereo not drawn) [Cyclophosphamide] | – | 56.2 |
